In patent publication US20240018132A1, “5-HYDROXY-1,4-NAPHTHALENEDIONE FOR USE IN THE TREATMENT OF CANCER” (GODAVARI BIOREFINERIES LIMITED, priority 2020, published 2024):

Experiments:
MDAMB231 [1] = assay: In vitro sphere-forming assay (cancer stem cells), Mammosphere media; details: for 3D sphere count of MDAMB231: Mammosphere media, 2000 cells/well, n = 6 ± S.D
MDAMB231 [2] = assay: In vitro antiproliferative assay (MTT assay), breast cancer cell line; format: cell-based; details: Homo sapiens, MDA-MB-231, 48 h, MTT assay, breast cancer MDAMB231, 48 hrs drug incubation
Protocol: (§1) MTT assay is a simple and sensitive assay where, metabolic reducing activity of the cells is measured. The increase of this activity in time is taken as a parameter of cell growth. If treatment with a drug impairs this increase, the action is a consequence of growth inhibition, cell killing or both. […] All cell lines were cultured in a 37° C. incubator with a 5% CO2 environment. Compounds were dissolved in DMSO with a concentration of 0.1M (stock solution). Cells were seeded into 96-well plates at suitable plating efficiency.
(§2) Following plating efficiencies were standardized for MTT assay:
(§3) In the MTT procedure, the cells were plated in 96 well plates as per predetermined plating efficiency (Table1). The plates were then incubated for 24 hrs in 5% CO2 atmosphere at 37° C. Appropriate concentrations of the drugs were then added to the plate and further incubation was carried out for 48 hrs (in 5% CO2 atmosphere at 37° C.). The assay plate was then centrifuged twice at 3000 rpm for 3 mins and supernatant was then discarded. 100 ul of MTT solution (0.5 mg/ml) was then added to each well of the plate and it was further incubated for 4 hrs (in 5% CO2 atmosphere at 37° C.) Following 4 hr incubation, the plate was then centrifuged twice, and supernatant was aspirated off very carefully. 200 ul of DMSO was then added to each well to solubilize. MTT crystals and mixed well by shaking the plate. XY graph of log percent viability was then plotted against log drug concentration.

PC3 [3] = assay: In vitro antiproliferative assay (MTT assay), prostate cancer cell line; format: cell-based; details: Homo sapiens, PC-3, 48 h, MTT assay, prostate cancer PC3, 48 hrs drug incubation
Protocol: as §1, §2, §3

PC3 [4] = assay: In vitro sphere-forming assay (cancer stem cells), Prostosphere media; details: for 3D sphere count of PC3: Prostosphere media, 2000 cells/well, n = 6 ± S.D
Protocol: In Vitro Sphere-forming Assay: Sphere assay measures the ability of cancer stem cells (CSCs) to form spheres in specially designed serum-free medium.
Prostosphere Media Preparation (For 100 mL):1 g methyl cellulose autoclaved with magnetic stirrer, 100 mL plain media (Prostate Epithelial Basal Medium) was added and dissolved, under magnetic stirring. After complete dissolution, Insulin-40 μL, B27-2 mL, EGF-80 μL, Penstrep-1 ml was added.
Procedure—The cells were trypsinised and made into single-cell suspension by passing through cell strainers (100 μl and 40 μl, respectively), The cells were diluted at a concentration of 2000 cells/100 μL and suspended in either Mammosphere (for breast cell lines) or Prostosphere (for prostate cell lines). 100 μL of this suspension was added into each well of 96-well suspension plates and incubated at 37° C., 5% CO2 for 24 hrs. Appropriate concentrations of the drugs (2 μL) were added into respective wells with 100 μL of stem cell culture medium. Plates were incubated at 37° C., 50 CO2 for 72 hrs. After incubation, 2.5 μL of the respective drug concentration and 50 μL of stem cell culture medium were added into each well and the plates were further incubated at 37° C., 50% CO2 for 72 hrs. 3 μL of the respective drug concentration was added with 50 μL of stem cell culture medium again after incubation and plates were reincubated for 72 hrs at 37° C., 50 CO2. Number of primary spheres formed for each concentration were counted. The spheres were converted to 0 viability of spheres compared to untreated (Growth Control with DMSO, GCD).

[5] = Homo sapiens, MDA-MB-231, read-out: % Viability of spheres (MDAMB231)
[6] = Homo sapiens, PC-3, read-out: % Viability of spheres (PC3)

Row | Compound | viability at 0.0025 µM (MDAMB231 [1]; [5]) | viability at 0.025 µM (MDAMB231 [1]; [5]) | viability at 0.25 µM (MDAMB231 [1]; [5]) | viability at 2.5 µM (MDAMB231 [1]; [5]) | viability at 25 µM (MDAMB231 [1]; [5]) | 3D sphere count of MDAMB231 (MDAMB231 [1]; drug 0.0025 uM) | 3D sphere count of MDAMB231 (MDAMB231 [1]; drug 0.025 uM) | 3D sphere count of MDAMB231 (MDAMB231 [1]; drug 0.25 uM) | 3D sphere count of MDAMB231 (MDAMB231 [1]; drug 2.5 uM) | 3D sphere count of MDAMB231 (MDAMB231 [1]; drug 25 uM) | IC50 (MDAMB231 [2]) | IC50 (PC3 [3]) | viability at 0.025 µM (PC3 [4]; [6]) | viability at 0.25 µM (PC3 [4]; [6]) | viability at 2.5 µM (PC3 [4]; [6]) | viability at 25 µM (PC3 [4]; [6]) | 3D sphere count of PC3 (PC3 [4]; drug 0.025 uM) | 3D sphere count of PC3 (PC3 [4]; drug 0.25 uM) | 3D sphere count of PC3 (PC3 [4]; drug 2.5 uM) | 3D sphere count of PC3 (PC3 [4]; drug 25 uM) | other results
1 | O=C1C(Oc2ccc(F)cc2)=CC(=O)c2c(OCCCN3CCOCC3)cccc21 [Formula 78] | 87% | 67% | 57% | 46% | 35% | 79(±3) | 65(±5) | 52(±4) | 42(±4) | 32(±3) | 5500 nM | 3460 nM | 68% | 53% | 41% | 30% | 55(±3) | 43(±3) | 33(±3) | 24(±4) | viability at 0.0025 µM (PC3 [4]; [6]): 81%; 3D sphere count of PC3 (PC3 [4]; drug 0.0025 uM): 65(±4)
2 | O=C1C(c2ccc(F)cc2)=CC(=O)c2c(OCCN3CCOCC3)cccc21 [Formula 7, 5-(2-morpholinoethoxy)-2-(4-fluorophenyl) naphthalene-1,4-dione] | – | 83% | 60% | 43% | 31% | – | 59(±3) | 43(±3) | 31(±3) | 22(±3) | 451 nM | 246 nM | 71% | 50% | 35% | 21% | 57(±3) | 40(±3) | 28(±2) | 17(±3) | viability at 250 µM (MDAMB231 [1]; [5]): 15%; 3D sphere count of MDAMB231 (MDAMB231 [1]; drug 250 uM): 11(±3); viability at 250 µM (PC3 [4]; [6]): 11%; 3D sphere count of PC3 (PC3 [4]; drug 250 uM): 9(±2)
3 | O=C1C=C(Oc2ccc3c(c2)OCO3)C(=O)c2c(OCCN3CCOCC3)cccc21 [Formula 79, 8-(2-morpholinoethoxy)-2-(benzo[d][1,3]dioxol-6-yloxy)naphthalene-1,4-dione] | 76% | 56% | 39% | 26% | 19% | 69(±3) | 51(±3) | 35(±3) | 24(±3) | 17(±3) | 502 nM | 527 nM | 57% | 43% | 30% | 20% | 55(±3) | 43(±3) | 33(±3) | 24(±4) | viability at 0.0025 µM (PC3 [4]; [6]): 78%; 3D sphere count of PC3 (PC3 [4]; drug 0.0025 uM): 65(±4)
4 | O=C1C=C(Oc2ccc(F)cc2)C(=O)c2c(OCCN3CCOCC3)cccc21 [Formula 80, 8-(2-morpholinoethoxy)-2-(4fluorophenoxy)naphthalene-1,4-dione] | 75% | 53% | 39% | 23% | 15% | 68(±4) | 48(±3) | 35(±4) | 21(±3) | 14(±4) | 352 nM | 482 nM | 56% | 37% | 27% | 17% | 45(±3) | 30(±2) | 22(±4) | 14(±3) | viability at 0.0025 µM (PC3 [4]; [6]): 73%; 3D sphere count of PC3 (PC3 [4]; drug 0.0025 uM): 59(±3)
5 | O=C1C(Oc2ccc(F)cc2F)=CC(=O)c2c(OCCN3CCOCC3)cccc21 [Formula 74] | 73% | 48% | 35% | 27% | 12% | 60(±3) | 39(±3) | 29(±3) | 22(±4) | 10(±2) | 109 nM | 225 nM | 56% | 41% | 27% | 17% | 45(±2) | 36(±4) | 24(±4) | 15(±3) | viability at 0.0025 µM (PC3 [4]; [6]): 73%; 3D sphere count of PC3 (PC3 [4]; drug 0.0025 uM): 64(±6)
